Test systems include MCF7 breast; TK-10 renal; KM12 colon; MALME-3M melanoma; UACC-62 melanoma; SW-620 colon; UACC-257 melanoma; T-47D breast.
Common to all, as to assay: NCI anticancer screen, dose series, 48 h

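A five-concentration, 48-hour dose response in 96-well plates underlies each endpoint, interpolated linearly between surrounding concentrations. GI50 marks 50% less growth. At the TGI there is no net growth.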

For the compound `COc1cc(N2C(=O)[C@H](O)C2c2ccc(SC)cc2)cc(OC)c1OC` (stereo partly specified), the GI50 with MCF7 breast was < 0.01 µM; with TK-10 renal, 23.2 µM; in the test on KM12 colon it was < 0.01 µM; in the test on MALME-3M melanoma, 21.6 µM; in the test on UACC-62 melanoma, < 0.01 µM; with SW-620 colon, < 0.01 µM. For the same compound, in the test on UACC-257 melanoma, the GI50 was 14.6 µM. Also, the TGI in the test on MCF7 breast was > 100 µM; with TK-10 renal, > 100 µM; with KM12 colon it was > 100 µM; in the test with MALME-3M melanoma it was 74 µM; with UACC-62 melanoma, > 100 µM; in the test on SW-620 colon, > 100 µM. In addition, in the test with UACC-257 melanoma, the TGI is > 100 µM.

For `O=C1OCC2=C1C(c1ccc(Cl)c(Cl)c1)c1cc3c(cc1N2CCO)OCCO3` (stereo unspecified), the GI50 in the test on MCF7 breast was 0.208 µM; in the test with TK-10 renal, 0.513 µM; with T-47D breast, 0.282 µM; in the test with KM12 colon it was 0.172 µM; in the test with MALME-3M melanoma, 0.249 µM; with UACC-62 melanoma, 0.192 µM. Further, the GI50 in the test with SW-620 colon was 0.16 µM; in the test with UACC-257 melanoma it was 0.181 µM. In addition, the TGI with MCF7 breast was > 50 µM; with TK-10 renal it was 20 µM; in the test with T-47D breast it was > 50 µM; in the test with KM12 colon it was 7.58 µM; in the test with MALME-3M melanoma, 25.8 µM; with UACC-62 melanoma, 10.8 µM. For the same compound, the TGI in the test with SW-620 colon was > 50 µM; in the test with UACC-257 melanoma it was 19.4 µM.

For `O=C1c2ccccc2-c2cc([N+](=O)[O-])c([N+](=O)[O-])cc21`, the TGI with MCF7 breast turned out to be 2.4 µM; in the test on TK-10 renal it was 2.81 µM; with T-47D breast, 2.69 µM; in the test with KM12 colon, 3.51 µM; in the test with MALME-3M melanoma, 4.95 µM; with UACC-62 melanoma, 3.13 µM. For the same compound, the TGI in the test on SW-620 colon was > 21.1 µM; in the test with UACC-257 melanoma, 2.74 µM.

With `O=C(/C=C/c1cc2ccccc2[nH]c1=O)/C=C/c1cc2ccccc2[nH]c1=O`, the GI50 in the test on MCF7 breast is 3.84 µM; in the test on TK-10 renal, 11.6 µM; with T-47D breast, 11.6 µM; with KM12 colon it was 4.32 µM; with MALME-3M melanoma, > 59.6 µM; in the test with UACC-62 melanoma, 16.9 µM. The GI50 is 6.34 µM in the test with SW-620 colon and 8.32 µM in the test with UACC-257 melanoma. Also, the TGI in the test with MCF7 breast is > 47.7 µM; with TK-10 renal it was > 60.7 µM; in the test with T-47D breast, > 100 µM; in the test with KM12 colon, 8.59 µM; in the test on MALME-3M melanoma, > 100 µM; with UACC-62 melanoma it was 97.8 µM. The results for the TGI in the test on SW-620 colon and with UACC-257 melanoma were 14.8 µM and 19.6 µM, respectively.

Take `COc1cc2nc(N3CCCC3)nc(NCCc3ccccc3)c2cc1OC`: the GI50 in the test on MCF7 breast was 1.17 µM; with TK-10 renal it was 1.97 µM; in the test on T-47D breast, 1.94 µM; in the test with KM12 colon, 1.96 µM; in the test on MALME-3M melanoma, 1.9 µM; in the test on UACC-62 melanoma it was 1.65 µM. Besides, the values for the GI50 with SW-620 colon and in the test on UACC-257 melanoma were 1.38 µM and 1.89 µM, respectively. The TGI was 2.85 µM in the test on MCF7 breast; 3.56 µM in the test with TK-10 renal; 4.41 µM with T-47D breast; 3.74 µM with KM12 colon; 3.38 µM with MALME-3M melanoma; 3.06 µM with UACC-62 melanoma. Also, the TGI in the test with SW-620 colon was 3.07 µM; in the test with UACC-257 melanoma, 3.85 µM.

In the case of `Fc1ccc(/C=N/n2c(-c3ccc(F)c(Cl)c3)nn(CNc3ccccc3C(F)(F)F)c2=S)cc1`, the GI50 in the test on MCF7 breast was 30.7 µM; with TK-10 renal it was 38.7 µM; with T-47D breast it was 41.3 µM; with KM12 colon, 29.3 µM; in the test on MALME-3M melanoma, 27.2 µM; in the test with UACC-62 melanoma, 39.2 µM. Besides, the GI50 in the test on SW-620 colon was 86.2 µM; in the test on UACC-257 melanoma, 42.5 µM. Further, the TGI in the test on MCF7 breast is > 100 µM; in the test with TK-10 renal, > 100 µM; in the test with T-47D breast it was > 100 µM; with KM12 colon, > 100 µM; in the test with MALME-3M melanoma, 95.7 µM; in the test on UACC-62 melanoma it was > 100 µM. Moreover, the TGI in the test on SW-620 colon and in the test on UACC-257 melanoma was > 100 µM throughout.

For `CN[C@@H](C)C(=O)N[C@H](C(=O)N1CCC[C@H]1C(=O)Nc1sc(-c2ncco2)nc1-c1ccccc1)C1CCCCC1`, the GI50 is 21.7 µM in the test with MCF7 breast; 57.5 µM in the test with TK-10 renal; 24.3 µM in the test on T-47D breast; 43.3 µM with KM12 colon; 3.91 µM with MALME-3M melanoma; 18.6 µM in the test on UACC-62 melanoma. Moreover, the GI50 in the test with SW-620 colon is 78.4 µM; with UACC-257 melanoma, 17.5 µM. The TGI in the test with MCF7 breast is > 100 µM; with TK-10 renal it was > 100 µM; with T-47D breast, 82.4 µM; in the test with KM12 colon, > 100 µM; in the test on MALME-3M melanoma, 19.4 µM; with UACC-62 melanoma, 39.2 µM. Moreover, the results for the TGI with SW-620 colon and with UACC-257 melanoma were > 100 µM and 34 µM, respectively.

As to `CC(=O)OC12C=C(C)C(C(C)C1)C1C(=O)N(CCN3CCOCC3)C(=O)C12` (stereo unspecified), the GI50 in the test on TK-10 renal, with T-47D breast, with KM12 colon, with MALME-3M melanoma, in the test with UACC-62 melanoma and in the test on SW-620 colon was > 100 µM in each case. Further, the GI50 with UACC-257 melanoma is > 100 µM. In addition, the TGI with TK-10 renal, with T-47D breast, in the test on KM12 colon, in the test with MALME-3M melanoma, in the test on UACC-62 melanoma and in the test on SW-620 colon was > 100 µM throughout. Besides, the TGI in the test with UACC-257 melanoma is > 100 µM.

In the case of `CC(C)C[C@H](NC(=O)CNC(=O)c1cc(Cl)ccc1Cl)B1OC(=O)CC(CC(=O)O)(C(=O)O)O1` (stereo partly specified), the GI50 in the test with MCF7 breast is 0.0391 µM; with TK-10 renal it was 0.0287 µM; in the test on T-47D breast it was 0.0285 µM; in the test on KM12 colon, 0.105 µM; in the test with MALME-3M melanoma it was 0.0329 µM; in the test on UACC-62 melanoma it was 0.0396 µM. The GI50 with SW-620 colon is 0.0364 µM. In addition, the TGI was 43.1 µM in the test on MCF7 breast; 0.373 µM in the test with TK-10 renal; 0.0819 µM with T-47D breast; 0.607 µM with KM12 colon; 0.412 µM with MALME-3M melanoma; 0.221 µM in the test with UACC-62 melanoma.

Consider `OCC12C3C4C5C3C1C5C42` (stereo unspecified), for which the TGI with MCF7 breast, in the test on TK-10 renal, with T-47D breast, with MALME-3M melanoma, in the test on UACC-62 melanoma and with SW-620 colon was > 100 µM throughout. The TGI in the test on UACC-257 melanoma was > 100 µM.

The values above are taken from PubChem BioAssay (NCI).
